Key:
Test in all cases: Test B pre-/postemergence
Assay type in all cases: in vivo
Parameters in all cases: key: 0 is no effect; 10 is complete control
[1] = test system: pigweed (Amaranthus retroflexus)
Summary of the method: (§1)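 Seeds were planted and sprayed preemergence, while plants at 2 to 18 cm (1- to 4-leaf stage) were sprayed postemergence at the same time, with test chemical in a non-phytotoxic solvent mixture containing surfactant. After twelve to sixteen days in a greenhouse, injury was rated visually against untreated controls on a 0–10 scale.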

soybean (Glycine max) = test system: soybean (Glycine max)
Summary of the method: as §1

[2] = test system: wheat (Triticum aestivum)
Summary of the method: as §1

[3] = test system: velvetleaf (Abutilon theophrasti)
Summary of the method: as §1

[4] = test system: giant foxtail (Setaria faberii)
Summary of the method: as §1

[5] = test system: cocklebur (Xanthium strumarium)
Summary of the method: as §1

[6] = test system: momingglory (Ipomoea hederacea)
Summary of the method: as §1

[7] = test system: crabgrass (Digitaria sanguinalis); conditions: for Plant response rating, Crabgrass: Preemergence
Summary of the method: as §1

[8] = test system: sugar beet (Beta vulgaris)
Summary of the method: as §1

rape (Brassica napus) = test system: rape (Brassica napus)
Summary of the method: as §1

[9] = test system: purple nutsedge (Cyperus rotundus)
Summary of the method: as §1

[10] = test system: broadleaf signalgrass (Brachiaria decumbens)
Summary of the method: as §1

corn (Zea mays) = test system: corn (Zea mays)
Summary of the method: as §1

[11] = test system: bedstraw (Galium aparine)
Summary of the method: as §1

[12] = Preemergence, Rate 62 g/ha, scale of 0 to 10

Cc1cnc(-c2ccc(C(F)(F)F)cc2)nc1C(=O)c1cccc(OC(F)(F)F)c1 [Compound 75]
Plant response rating, Redroot pigweed [1, 12]: 9
Redroot pigweed plant response rating ([1]; Rate 62 g/ha, Postemergence): 9
Redroot pigweed plant response rating ([1]; Rate 125 g/ha, Postemergence): 9
Plant response rating, Redroot pigweed ([1]; Rate 125 g/ha, Preemergence): 10
Plant response rating, Redroot pigweed ([1]; Rate 250 g/ha, Postemergence): 10
Plant response rating, Redroot pigweed ([1]; Rate 250 g/ha, Preemergence): 10
Plant response rating, Redroot pigweed ([1]; Rate 500 g/ha, Preemergence): 10
Plant response rating, Soybean (soybean (Glycine max); [12]): 0
Soybean plant response rating (soybean (Glycine max); Rate 62 g/ha, Postemergence): 3
Soybean plant response rating (soybean (Glycine max); Rate 125 g/ha, Postemergence): 3
Plant response rating, Soybean (soybean (Glycine max); Rate 125 g/ha, Preemergence): 0
Plant response rating, Soybean (soybean (Glycine max); Rate 250 g/ha, Postemergence): 3
Plant response rating, Soybean (soybean (Glycine max); Rate 250 g/ha, Preemergence): 0
Plant response rating, Soybean (soybean (Glycine max); Rate 500 g/ha, Preemergence): 1
Plant response rating, Wheat [2, 12]: 0
Wheat plant response rating ([2]; Rate 62 g/ha, Postemergence): 2
Wheat plant response rating ([2]; Rate 125 g/ha, Postemergence): 2
Plant response rating, Wheat ([2]; Rate 125 g/ha, Preemergence): 4
Plant response rating, Wheat ([2]; Rate 250 g/ha, Postemergence): 3
Plant response rating, Wheat ([2]; Rate 250 g/ha, Preemergence): 4
Plant response rating, Wheat ([2]; Rate 500 g/ha, Preemergence): 5
Plant response rating, Velvetleaf [3, 12]: 2
Velvetleaf plant response rating ([3]; Rate 62 g/ha, Postemergence): 8
Velvetleaf plant response rating ([3]; Rate 125 g/ha, Postemergence): 9
Plant response rating, Velvetleaf ([3]; Rate 125 g/ha, Preemergence): 8
Plant response rating, Velvetleaf ([3]; Rate 250 g/ha, Postemergence): 9
Plant response rating, Velvetleaf ([3]; Rate 250 g/ha, Preemergence): 9
Plant response rating, Velvetleaf ([3]; Rate 500 g/ha, Preemergence): 10
Plant response rating, Giant foxtail [4, 12]: 1
Giant foxtail plant response rating ([4]; Rate 62 g/ha, Postemergence): 1
Giant foxtail plant response rating ([4]; Rate 125 g/ha, Postemergence): 2
Plant response rating, Giant foxtail ([4]; Rate 125 g/ha, Preemergence): 5
Plant response rating, Giant foxtail ([4]; Rate 250 g/ha, Postemergence): 4
Plant response rating, Giant foxtail ([4]; Rate 250 g/ha, Preemergence): 5
Plant response rating, Giant foxtail ([4]; Rate 500 g/ha, Preemergence): 9
Plant response rating, Cocklebur [5, 12]: 0
Cocklebur plant response rating ([5]; Rate 62 g/ha, Postemergence): 7
Cocklebur plant response rating ([5]; Rate 125 g/ha, Postemergence): 7
Plant response rating, Cocklebur ([5]; Rate 125 g/ha, Preemergence): 0
Plant response rating, Cocklebur ([5]; Rate 250 g/ha, Postemergence): 7
Plant response rating, Cocklebur ([5]; Rate 250 g/ha, Preemergence): 2
Plant response rating, Cocklebur ([5]; Rate 500 g/ha, Preemergence): 9
Plant response rating, Morningglory [6, 12]: 6
Morningglory plant response rating ([6]; Rate 62 g/ha, Postemergence): 10
Morningglory plant response rating ([6]; Rate 125 g/ha, Postemergence): 10
Plant response rating, Morningglory ([6]; Rate 125 g/ha, Preemergence): 10
Plant response rating, Morningglory ([6]; Rate 250 g/ha, Postemergence): 10
Plant response rating, Morningglory ([6]; Rate 250 g/ha, Preemergence): 10
Plant response rating, Morningglory ([6]; Rate 500 g/ha, Preemergence): 10
Plant response rating, Crabgrass ([7]; Rate 62 g/ha, scale of 0 to 10): 6
Crabgrass plant response rating ([7]; Rate 125 g/ha, Postemergence): 4
Plant response rating, Crabgrass ([7]; Rate 125 g/ha): 9
Plant response rating, Crabgrass ([7]; Rate 250 g/ha): 9
Plant response rating, Crabgrass ([7]; Rate 500 g/ha): 10
Plant response rating, Sugarbeets [8, 12]: 9
Sugarbeets plant response rating ([8]; Rate 62 g/ha, Postemergence): 10
Sugarbeets plant response rating ([8]; Rate 125 g/ha, Postemergence): 10
Plant response rating, Sugarbeets ([8]; Rate 125 g/ha, Preemergence): 10
Plant response rating, Sugarbeets ([8]; Rate 250 g/ha, Postemergence): 10
Plant response rating, Sugarbeets ([8]; Rate 250 g/ha, Preemergence): 10
Plant response rating, Sugarbeets ([8]; Rate 500 g/ha, Preemergence): 10
Plant response rating, Rape (rape (Brassica napus); [12]): 2
Rape plant response rating (rape (Brassica napus); Rate 62 g/ha, Postemergence): 5
Rape plant response rating (rape (Brassica napus); Rate 125 g/ha, Postemergence): 7
Plant response rating, Rape (rape (Brassica napus); Rate 125 g/ha, Preemergence): 3
Plant response rating, Rape (rape (Brassica napus); Rate 250 g/ha, Postemergence): 9
Plant response rating, Rape (rape (Brassica napus); Rate 250 g/ha, Preemergence): 4
Plant response rating, Rape (rape (Brassica napus); Rate 500 g/ha, Preemergence): 4
Plant response rating, Nutsedge [9, 12]: 0
Nutsedge plant response rating ([9]; Rate 62 g/ha, Postemergence): 0
Nutsedge plant response rating ([9]; Rate 125 g/ha, Postemergence): 0
Plant response rating, Nutsedge ([9]; Rate 125 g/ha, Preemergence): 0
Plant response rating, Nutsedge ([9]; Rate 250 g/ha, Postemergence): 0
Plant response rating, Nutsedge ([9]; Rate 250 g/ha, Preemergence): 0
Plant response rating, Nutsedge ([9]; Rate 500 g/ha, Preemergence): 0
B. signalgrass plant response rating ([10]; Rate 62 g/ha, Postemergence): 2
B. signalgrass plant response rating ([10]; Rate 62 g/ha, Preemergence): 8
B. signalgrass plant response rating ([10]; Rate 125 g/ha, Postemergence): 2
Plant response rating, B. signalgrass ([10]; Rate 125 g/ha, Preemergence): 9
Plant response rating, B. signalgrass ([10]; Rate 250 g/ha, Postemergence): 3
Plant response rating, B. signalgrass ([10]; Rate 250 g/ha, Preemergence): 9
Plant response rating, B. signalgrass ([10]; Rate 500 g/ha, Preemergence): 9
Plant response rating, Corn (corn (Zea mays); [12]): 0
Corn plant response rating (corn (Zea mays); Rate 62 g/ha, Postemergence): 2
Corn plant response rating (corn (Zea mays); Rate 125 g/ha, Postemergence): 3
Plant response rating, Corn (corn (Zea mays); Rate 125 g/ha, Preemergence): 0
Plant response rating, Corn (corn (Zea mays); Rate 250 g/ha, Postemergence): 3
Plant response rating, Corn (corn (Zea mays); Rate 250 g/ha, Preemergence): 1
Plant response rating, Corn (corn (Zea mays); Rate 500 g/ha, Preemergence): 2
Plant response rating, Bedstraw [11, 12]: 3
Bedstraw plant response rating ([11]; Rate 62 g/ha, Postemergence): 5
Bedstraw plant response rating ([11]; Rate 125 g/ha, Postemergence): 9
Plant response rating, Bedstraw ([11]; Rate 125 g/ha, Preemergence): 6
Plant response rating, Bedstraw ([11]; Rate 250 g/ha, Postemergence): 9
Plant response rating, Bedstraw ([11]; Rate 250 g/ha, Preemergence): 6
Plant response rating, Bedstraw ([11]; Rate 500 g/ha, Preemergence): 8
